The record followed here is patent US20240016763A1, “COENZYME Q10 MICROEMULSION, PREPARATION METHOD THEREFOR AND USE THEREOF” (ZHEJIANG NHU CO., LTD., priority 2021, published 2024).

Series [1] in a line: Test of stability: 60° C. (incubator), 15 days. Format: physicochemical. The text has this: (§1) The coenzyme Q10 microemulsion is quickly poured into a transparency meter barrel, and an inspector observes vertically downward from the barrel mouth of the transparency meter, and slowly releases the microemulsion just to a height of the microemulsion where the type at the bottom can be clearly recognized. The height of the microemulsion is the transparency of the coenzyme Q10 microemulsion, which is generally more than 30 cm to be transparent. The measurement is repeated for 3 times, and the results are averaged.
(§2) Microemulsion samples and coenzyme Q10 raw material are placed in the conditions of irradiation at 4500 Lx light intensity, oxygen filling (25° C.) and 60° C. (incubator) for 15 days, respectively, for experiments. In these experiments, samples are taken on day 0, day 5, day 10 and day 15, respectively, and the content of coenzyme Q10 is determined by HPLC, to investigate the effects of light, oxygen and temperature on the labeled content (%) of coenzyme Q10 and the appearance.
(§3) Refer to the test method of coenzyme Q10 content in Chinese Pharmacopoeia (2015 edition).

The nature of series [2]: Test of particle size DV(90) (laser particle size distribution). Format: physicochemical. As to conditions: sample diluted 1:20 with distilled water, 25° C. The procedure:
The microemulsion sample is diluted with distilled water at a ratio of 1:20 and gently shaken to form a clear microemulsion. Then, the particle size distribution of the emulsion is measured by MASTERSIZER 3000 laser particle size distribution instrument (purchased from Malvern Company, UK) at 25° C.

The nature of series [3]: Test of bioavailability: plasma concentration in rats after intragastric administration. The following applies: mean±SD, n=10. Format: in vivo. The method, then: Preparation of coenzyme Q10 raw material sample solution: 0.1 g of coenzyme Q10 crystal is accurately weighed and dissolved in 100 mL of diethylene glycol monoethyl ether solution, as a raw material sample.
Microemulsion samples of Examples 1 to 6, coded as Sample 1, Sample 2, Sample 3, Sample 4, Sample 5 and Sample 6, are selected to conduct animal experiments.
Experimental conditions: the temperature of the laboratory feeding environment is 25±3° C., the relative humidity is 55% to 70%, the animals are free to drink water and eat food (deionized water and standard feed) every day, and they are fasted for 12 hours before the experiment but drink water freely.
Experimental animals and grouping: seventy 8-week-old healthy SPF-grade male SD rats, provided by Hubei Experimental Animal Research Center, weighing from 220 g to 230 g.
The rats are operated according to the international experimental guidelines for experimental animals, and every 10 rats fasted for 12 hours are divided into one group by a completely random design, totally seven groups.
Oral administration, sample collection and treatment: the rats are intragastrically administered with the same dose (15 mg/kg: coenzyme Q10 content) of microemulsion samples 1 to 6 and raw material samples, respectively. After administration, plasma is collected at 5 minutes, 15 minutes, 30 minutes, 1 hour, 3 hours, 6 hours, 10 hours and 15 hours, respectively, and put into anticoagulant centrifuge tubes containing heparin, mixed uniformly and then centrifuged to separate the plasma. After the treatment, the plasma concentration is detected by HPLC.
According to the results of the plasma concentration, statistical fitting analysis is carried out by using statistical analysis software, to calculate the plasma concentration. The results is expressed as mean value±standard deviation.

A short description of series [4]: Test of stability: irradiation at 4500 Lx light intensity, 15 days. Format: physicochemical. The following applies: 4500 Lx illumination.
Excerpt: as §1, §2, §3

The nature of series [5]: Test of stability: oxygen filling (25° C.), 15 days. Format: physicochemical.
Excerpt: as §1, §2, §3

Take `COC1=C(OC)C(=O)C(C/C=C(\C)CC/C=C(\C)CC/C=C(\C)CC/C=C(\C)CC/C=C(\C)CC/C=C(\C)CC/C=C(\C)CC/C=C(\C)CC/C=C(\C)CCC=C(C)C)=C(C)C1=O` [coenzyme Q10 raw material, coenzyme Q10]: the “Labeled content of coenzyme Q10” value in series [1] (0 day) stood at 99%; in series [1] (5 days) it was 97%; in series [1] (10 days), 95%; in series [1] (15 days) it was 92%; in series [4] (0 day) it was 99%; in series [4] (5 days), 95%. Further, the “Labeled content of coenzyme Q10” value in series [4] (10 days) was determined as 93%; in series [4] (15 days), 88%; in series [5] (0 day) it was 99%; in series [5] (5 days) it was 97%; in series [5] (10 days), 95%; in series [5] (15 days) it was 90%. For the same molecule, the “DV(90)” value in series [2] stood at 75000 nm. Further, the average plasma concentration came to 12.1 µg/L in series [3] (intragastric 15 mg/kg coenzyme Q10, 5 minutes); 21.3 µg/L in series [3] (intragastric 15 mg/kg coenzyme Q10, 15 minutes); 49.3 µg/L in series [3] (intragastric 15 mg/kg coenzyme Q10, 30 minutes); 93.0 µg/L in series [3] (intragastric 15 mg/kg coenzyme Q10, 1 hour); 110.4 µg/L in series [3] (intragastric 15 mg/kg coenzyme Q10, 3 hours); 83.3 µg/L in series [3] (intragastric 15 mg/kg coenzyme Q10, 6 hours). Besides, the average plasma concentration in series [3] (intragastric 15 mg/kg coenzyme Q10, 10 hours) was determined as 37.6 µg/L; in series [3] (intragastric 15 mg/kg coenzyme Q10, 15 hours) it was 11.5 µg/L.
